Experimental data as given in PMC9284491 (Nature Communications, 2022).
“Also recorded” adds a separate entry of the source.

Assay: Treatment-emergent adverse events (MedDRA, NCI-CTCAE v4.03), safety populations
Format: in vivo, human
Method: Overall safety in Parts A and B was assessed by tabulating TEAEs, coded using the Medical Dictionary for Regulatory Activities (MedDRA) version 22.1, and graded according to NCI-CTCAE v4.03 criteria. TEAEs were classified as related or unrelated to amcenestrant therapy based upon the local investigating physician’s clinical judgment. The safety population included all patients exposed to at least one dose of the study treatment. Results were analyzed using descriptive statistics.

For `O=C(O)c1ccc2c(c1)CCCC(c1ccc(Cl)cc1Cl)=C2c1ccc(O[C@H]2CCN(CCCF)C2)cc1` [amcenestrant, 6-(2,4-Dichlorophenyl)−5-[4-[(3S)−1-(3-fluoropropyl)pyrrolidin-3-yl]oxyphenyl]−8,9-dihydro-7H-benzo[7]annulene-2-carboxylic acid], the “Headache, Treatment-related TEAEs, All Grades” value (Part B, 400 mg QD (N = 49)) was 0 n (%), the “Headache, Treatment-related TEAEs, Grade 1” value (Part B, 400 mg QD (N = 49)) was 0 n (%) and the “Headache, Treatment-related TEAEs, Grade 2” value (Part B, 400 mg QD (N = 49)) was 0 n (%). The “Headache, Treatment-related TEAEs, Grade ≥3” value (Part B, 400 mg QD (N = 49)) was 0 n (%), the “Hot flush, TEAEs, All grades” value (Part B, 400 mg QD (N = 49)) was 7 (14.3) n (%) and the “Hot flush, TEAEs, Grade 1” value (Part B, 400 mg QD (N = 49)) was 5 (10.2) n (%). For the same molecule, the “Hot flush, TEAEs, Grade 2” value (Part B, 400 mg QD (N = 49)) was 2 (4.1) n (%), the “Hot flush, TEAEs, Grade ≥3” value (Part B, 400 mg QD (N = 49)) was 0 n (%) and the “Hot flush, Treatment-related TEAEs, All Grades” value (Part B, 400 mg QD (N = 49)) was 5 (10.2) n (%). The “Hot flush, Treatment-related TEAEs, Grade 1” value (Part B, 400 mg QD (N = 49)) was 5 (10.2) n (%), the “Hot flush, Treatment-related TEAEs, Grade 2” value (Part B, 400 mg QD (N = 49)) was 0 n (%) and the “Hot flush, Treatment-related TEAEs, Grade ≥3” value (Part B, 400 mg QD (N = 49)) was 0 n (%). For the same molecule, the “Hypertension, TEAEs, All grades” value (Part B, 400 mg QD (N = 49)) was 4 (8.2) n (%), the “Hypertension, TEAEs, Grade 1” value (Part B, 400 mg QD (N = 49)) was 0 n (%) and the “Hypertension, TEAEs, Grade 2” value (Part B, 400 mg QD (N = 49)) was 4 (8.2) n (%). For the same molecule, the “Hypertension, TEAEs, Grade ≥3” value (Part B, 400 mg QD (N = 49)) was 0 n (%), the “Hypertension, Treatment-related TEAEs, All Grades” value (Part B, 400 mg QD (N = 49)) was 1 (2.0) n (%) and the “Hypertension, Treatment-related TEAEs, Grade 1” value (Part B, 400 mg QD (N = 49)) was 0 n (%). For the same molecule, the “Hypertension, Treatment-related TEAEs, Grade 2” value (Part B, 400 mg QD (N = 49)) was 1 (2.0) n (%), the “Hypertension, Treatment-related TEAEs, Grade ≥3” value (Part B, 400 mg QD (N = 49)) was 0 n (%) and the “Nasopharyngitis, TEAEs, All grades” value (Part B, 400 mg QD (N = 49)) was 3 (6.1) n (%). The “Nasopharyngitis, TEAEs, Grade 1” value (Part B, 400 mg QD (N = 49)) was 3 (6.1) n (%), the “Nasopharyngitis, TEAEs, Grade 2” value (Part B, 400 mg QD (N = 49)) was 0 n (%) and the “Nasopharyngitis, TEAEs, Grade ≥3” value (Part B, 400 mg QD (N = 49)) was 0 n (%). For the same molecule, the “Nasopharyngitis, Treatment-related TEAEs, All Grades” value (Part B, 400 mg QD (N = 49)) was 0 n (%), the “Nasopharyngitis, Treatment-related TEAEs, Grade 1” value (Part B, 400 mg QD (N = 49)) was 0 n (%) and the “Nasopharyngitis, Treatment-related TEAEs, Grade 2” value (Part B, 400 mg QD (N = 49)) was 0 n (%). For the same molecule, the “Nasopharyngitis, Treatment-related TEAEs, Grade ≥3” value (Part B, 400 mg QD (N = 49)) was 0 n (%), the “Nausea, TEAEs, All grades” value (Part B, 400 mg QD (N = 49)) was 11 (22.4) n (%) and the “Nausea, TEAEs, Grade 1” value (Part B, 400 mg QD (N = 49)) was 9 (18.4) n (%). For the same molecule, the “Nausea, TEAEs, Grade 2” value (Part B, 400 mg QD (N = 49)) was 1 (2.0) n (%), the “Nausea, TEAEs, Grade ≥3” value (Part B, 400 mg QD (N = 49)) was 1 (2.0) n (%) and the “Nausea, Treatment-related TEAEs, All Grades” value (Part B, 400 mg QD (N = 49)) was 2 (4.1) n (%). The “Nausea, Treatment-related TEAEs, Grade 1” value (Part B, 400 mg QD (N = 49)) was 2 (4.1) n (%), the “Nausea, Treatment-related TEAEs, Grade 2” value (Part B, 400 mg QD (N = 49)) was 0 n (%) and the “Nausea, Treatment-related TEAEs, Grade ≥3” value (Part B, 400 mg QD (N = 49)) was 0 n (%). For the same molecule, the “Pain in extremity, TEAEs, All grades” value (Part B, 400 mg QD (N = 49)) was 3 (6.1) n (%), the “Pain in extremity, TEAEs, Grade 1” value (Part B, 400 mg QD (N = 49)) was 2 (4.1) n (%) and the “Pain in extremity, TEAEs, Grade 2” value (Part B, 400 mg QD (N = 49)) was 1 (2.0) n (%). The “Pain in extremity, Treatment-related TEAEs, All Grades” value (Part B, 400 mg QD (N = 49)) was 0 n (%), the “Pain in extremity, Treatment-related TEAEs, Grade 1” value (Part B, 400 mg QD (N = 49)) was 0 n (%) and the “Pain in extremity, Treatment-related TEAEs, Grade 2” value (Part B, 400 mg QD (N = 49)) was 0 n (%). The “Pain in extremity, Treatment-related TEAEs, Grade ≥3” value (Part B, 400 mg QD (N = 49)) was 0 n (%), the “Paresthesia, TEAEs, All grades” value (Part B, 400 mg QD (N = 49)) was 3 (6.1) n (%) and the “Paresthesia, TEAEs, Grade 1” value (Part B, 400 mg QD (N = 49)) was 3 (6.1) n (%). For the same molecule, the “Paresthesia, TEAEs, Grade 2” value (Part B, 400 mg QD (N = 49)) was 0 n (%), the “Paresthesia, TEAEs, Grade ≥3” value (Part B, 400 mg QD (N = 49)) was 0 n (%) and the “Paresthesia, Treatment-related TEAEs, All Grades” value (Part B, 400 mg QD (N = 49)) was 1 (2.0) n (%). For the same molecule, the “Paresthesia, Treatment-related TEAEs, Grade 1” value (Part B, 400 mg QD (N = 49)) was 1 (2.0) n (%), the “Paresthesia, Treatment-related TEAEs, Grade 2” value (Part B, 400 mg QD (N = 49)) was 0 n (%) and the “Paresthesia, Treatment-related TEAEs, Grade ≥3” value (Part B, 400 mg QD (N = 49)) was 0 n (%). For the same molecule, the “Pyrexia, TEAEs, All grades” value (Part B, 400 mg QD (N = 49)) was 4 (8.2) n (%), the “Pyrexia, TEAEs, Grade 1” value (Part B, 400 mg QD (N = 49)) was 3 (6.1) n (%) and the “Pyrexia, TEAEs, Grade 2” value (Part B, 400 mg QD (N = 49)) was 1 (2.0) n (%). The “Pyrexia, TEAEs, Grade ≥3” value (Part B, 400 mg QD (N = 49)) was 0 n (%), the “Pyrexia, Treatment-related TEAEs, All Grades” value (Part B, 400 mg QD (N = 49)) was 0 n (%) and the “Pyrexia, Treatment-related TEAEs, Grade 1” value (Part B, 400 mg QD (N = 49)) was 0 n (%). The “Pyrexia, Treatment-related TEAEs, Grade 2” value (Part B, 400 mg QD (N = 49)) was 0 n (%), the “Pyrexia, Treatment-related TEAEs, Grade ≥3” value (Part B, 400 mg QD (N = 49)) was 0 n (%) and the “Rhinitis allergic, TEAEs, All grades” value (Part B, 400 mg QD (N = 49)) was 3 (6.1) n (%). For the same molecule, the “Rhinitis allergic, TEAEs, Grade 1” value (Part B, 400 mg QD (N = 49)) was 2 (4.1) n (%), the “Rhinitis allergic, TEAEs, Grade 2” value (Part B, 400 mg QD (N = 49)) was 1 (2.0) n (%) and the “Rhinitis allergic, TEAEs, Grade ≥3” value (Part B, 400 mg QD (N = 49)) was 0 n (%). The “Rhinitis allergic, Treatment-related TEAEs, All Grades” value (Part B, 400 mg QD (N = 49)) was 0 n (%), the “Rhinitis allergic, Treatment-related TEAEs, Grade 1” value (Part B, 400 mg QD (N = 49)) was 0 n (%) and the “Rhinitis allergic, Treatment-related TEAEs, Grade 2” value (Part B, 400 mg QD (N = 49)) was 0 n (%). For the same molecule, the “Rhinitis allergic, Treatment-related TEAEs, Grade ≥3” value (Part B, 400 mg QD (N = 49)) was 0 n (%), the “Urinary tract infection, TEAEs, All grades” value (Part B, 400 mg QD (N = 49)) was 5 (10.2) n (%) and the “Urinary tract infection, TEAEs, Grade 1” value (Part B, 400 mg QD (N = 49)) was 0 n (%). For the same molecule, the “Urinary tract infection, TEAEs, Grade 2” value (Part B, 400 mg QD (N = 49)) was 5 (10.2) n (%), the “Urinary tract infection, TEAEs, Grade ≥3” value (Part B, 400 mg QD (N = 49)) was 0 n (%) and the “Urinary tract infection, Treatment-related TEAEs, All Grades” value (Part B, 400 mg QD (N = 49)) was 1 (2.0) n (%). For the same molecule, the “Urinary tract infection, Treatment-related TEAEs, Grade 1” value (Part B, 400 mg QD (N = 49)) was 0 n (%), the “Urinary tract infection, Treatment-related TEAEs, Grade 2” value (Part B, 400 mg QD (N = 49)) was 1 (2.0) n (%) and the “Urinary tract infection, Treatment-related TEAEs, Grade ≥3” value (Part B, 400 mg QD (N = 49)) was 0 n (%). For the same molecule, the “Vomiting, TEAEs, All grades” value (Part B, 400 mg QD (N = 49)) was 14 (28.6) n (%), the “Vomiting, TEAEs, Grade 1” value (Part B, 400 mg QD (N = 49)) was 10 (20.4) n (%) and the “Vomiting, TEAEs, Grade 2” value (Part B, 400 mg QD (N = 49)) was 3 (6.1) n (%). The “Vomiting, TEAEs, Grade ≥3” value (Part B, 400 mg QD (N = 49)) was 1 (2.0) n (%), the “Vomiting, Treatment-related TEAEs, All Grades” value (Part B, 400 mg QD (N = 49)) was 4 (8.2) n (%) and the “Vomiting, Treatment-related TEAEs, Grade 1” value (Part B, 400 mg QD (N = 49)) was 4 (8.2) n (%). The “Vomiting, Treatment-related TEAEs, Grade 2” value (Part B, 400 mg QD (N = 49)) was 0 n (%), the “Vomiting, Treatment-related TEAEs, Grade ≥3” value (Part B, 400 mg QD (N = 49)) was 0 n (%) and the “treatment-related TEAE arthralgia, patients” value (Part B, 400 mg QD (n = 49)) was 8.2%. For the same molecule, the “treatment-related TEAE constipation, patients” value (Part B, 400 mg QD (n = 49)) was 6.1%, the “treatment-related TEAE gastroesophageal reflux disease, patients” value (Part B, 400 mg QD (n = 49)) was 6.1% and the “treatment-related TEAE hot flush, patients” value (Part B, 400 mg QD (n = 49)) was 10.2%. For the same molecule, the “treatment-related TEAE vomiting, patients” value (Part B, 400 mg QD (n = 49)) was 8.2%, the “patients with serious TEAEs” value (Part B, 13/49) was 26.5% and the “patients with at least one Grade ≥3 TEAE” value (Part B, 16/49, none considered related to amcenestrant) was 32.7%. For the same molecule, the “cardiac non-treatment-related TEAE” value (Part B, Grade 1 sinus bradycardia) was “One cardiac non-treatment-related TEAE was reported”, the “Grade ≥3 treatment-related adverse events” value (Parts A and B) was “No Grade ≥3 treatment-related adverse events; also recorded: no treatment-related TEAEs of Grade ≥3 occurred” and the “clinically significant cardiac or eye safety findings” value (Parts A and B) was “no clinically significant cardiac or eye safety findings were observed”.
